Values after ≈ are worked out from the molar mass of the structure shown. Read-outs that look alike come from different tables or passages of the source.
Tests used:
[1] = system: FLU-resistant C. neoformans strain BPY22; assay: microbe, parasite or virus in culture; assay type: cell-based; settings: for MIC: Cryptococcus neoformans, 48 h
[2] = system: FLU-sensitive (DSY4982) and FLU-resistant (BPY22 and BPY17) C. neoformans isolates; assay type: cell-based

## CN1C[C@H](C(=O)Nc2cccc(C(F)(F)F)c2)C[C@@H]2c3cccc4c3[C@H](C[C@H]21)CN4C(=O)OC(C)(C)C [NGx03]
[1]; read-out: MIC-0
  MIC: 32 µg/mL (≈ 62.1 µM)
[1]; read-out: MIC-2
  MIC: 16 µg/mL (≈ 31 µM)
[2]
  mechanism of inhibition (fungicidal vs fungistatic): fungicidal effect

## COC(=O)[C@@H]1C[C@@H]2c3cccc4c3[C@H](C[C@H]2N(C)C1)CN4C(=O)OCC(Cl)(Cl)Cl [NGx16]
[1]
  activity against FLU-resistant strain (in words): weaker activity
[2]
  mechanism of inhibition (fungicidal vs fungistatic): fungicidal effect

## COC(=O)[C@@H]1C[C@@H]2c3c([N+](=O)[O-])ccc4c3[C@H](C[C@H]2N(C)C1)CN4C(=O)OCC(Cl)(Cl)Cl [NGx19]
[1]
  activity against FLU-resistant strain (in words): weaker activity
